Test results reported in patent US9295627B2 (priority 2011, dated 2016).
Like-named read-outs stand apart in the source and are kept apart here.

Assays:
[1] = Acute toxicity test; settings: female, BALB/c, mouse, in vivo, ip
Experimental: Two grams of any one of the adenosine N1-oxide obtained in Experiment 1, the 3′-glucosyladesonine N1-oxide and 5′-glucosyladenosine N1-oxide obtained in Experiment 2, and the 5′-adenosine diphosphate N1-oxide and 5′-adenosine triphosphate N1-oxide obtained in Experiment 3 was dissolved in 100 mL of D-PBS (Dulbecco's Phosphate-Buffered Salines). The resulting solution was intraperitoneally administered to 10 BALB/c female mice, six-week-old, with an average body mass of 20 g each, commercialized by Charles River Laboratories Japan, Inc., Kanagawa, Japan, at a dose of one milliliter/head, followed by observation for 24 hours. As a control, only D-PBS was intraperitoneally administered to 10 BALB/c female mice, six-week-old, with an average body mass of 20 g each, commercialized by Charles River Laboratories Japan, Inc., Kanagawa, Japan, at a dose of one milliliter/head, followed by observation for 24 hours. Thereafter, each mouse was collected her blood and urine for measuring clinical test items as indexes for renal and liver functions. […] As a result, adenosine N1-oxide, 3′-glucosyladenosine N1-oxide, 5‘-glucosyladenosine N1-oxide, 5’-adenosinme diphosphate N1-oxide, and 5′-adenosine triphosphate N1-oxide have an LD50 of at least 1,000 mg/kg, respectively. Thus, these compounds are judged as substances safely administrable to humans.

[2] = Solubility in solvents such as water; type: physicochemical
[3] = system: medium periodontal diseases; experiment: Volunteer test 2: tooth mobility after mouthwash use, concentration series; type: in vivo, human; settings: aqueous mouthwash, % by mass, Experiment 6
From the text: • A: A distinct improvement in tooth mobility is observed on a tooth mobility test (or periodontometry) with a pincette compared with that before initiating the test; • B: Somewhat improvement in tooth mobility is observed on a tooth mobility test with a pincette compared with that before initiating the test; and • C: No improvement or rather aggravation is observed on a tooth mobility test with a pincette compared with that before initiating the test.
For adenosine N1-oxide, which had marked the highest improvement effect on periodontal diseases in Experiment 5, it was examined in more detail for its improvement action on periodontal diseases: Eight females, 20- to 30-year-old, as subjects, who were healthy except for suffering from medium periodontal diseases (with a periodontal pocket depth of 3 mm or deeper but less than 6 mm), were subjected to a volunteer test similarly as in Experiment 5 except for using six types of aqueous solutions containing 0.001 to 7.5% adenosine N1-oxide and setting a test period of seven months. […]
The subjects were allowed to brush their teeth with the same toothpaste as used in Experiment 5. […] Before initiating the test, a dental hygienist under a doctor's guidance evaluated the conditions of gingivitis for each subject […] based on the same criteria as shown in Experiment 5.

[4] = 1000 mg/kg, intraperitoneal, 2 g in 100 mL D-PBS, one milliliter/head, mice of 20 g, observation for 24 hours, read-out: LD50

Structure (SMILES)	LD50 at 24 h [1, 4] [mg/kg]	solubility in solvents such as water compared to adenosine N1-oxide [2]	LD50 at 24 h [1] [mg/kg]	concentrations at which periodontal diseases are distinctly, effectively prevented and/or treated [3] [%]
Nc1c2ncn([C@@H]3O[C@H](CO)[C@@H](O[C@H]4O[C@H](CO)[C@@H](O)[C@H](O)[C@H]4O)[C@H]3O)c2nc[n+]1[O-]	≥ 1000	higher solubility	–	–
Nc1c2ncn([C@@H]3O[C@H](CO[C@H]4O[C@H](CO)[C@@H](O)[C@H](O)[C@H]4O)[C@@H](O)[C@H]3O)c2nc[n+]1[O-]	≥ 1000	higher solubility	–	–
Nc1c2ncn(C3OC(COP(=O)(O)OP(=O)(O)O)C(O)C3O)c2nc[n+]1[O-] (centres unmarked) [5′-adenosine diphosphate N1-oxide]	–	higher solubility	–	–
Nc1c2ncn([C@@H]3O[C@H](COP(=O)(O)OP(=O)(O)OP(=O)(O)O)[C@@H](O)[C@H]3O)c2nc[n+]1[O-] [5′-adenosine triphosphate N1-oxide]	–	higher solubility	–	–
Nc1c2ncn([C@@H]3O[C@H](CO)[C@@H](O)[C@H]3O)c2nc[n+]1[O-] [adenosine N1-oxide]	–	–	≥ 1000	≥ 0.5
